Calls of active or inactive are those of the source. The rule behind the calls is not given here.
How the values were obtained:
[1] = test system: RSV-infected cells, CPE inhibition; experiment: inhibitors of RSV-induced cell death – synthesized compounds, set 10, dose response (AID 504827)
[2] = as above; details: RSV-infected cells, CPE inhibition; at 200 µM (top of the series)

Structure (SMILES)	IC50 [1] [µM]	CPE inhibition [2]
COc1ccc(C)c(NC(=O)[C@@H]2CCCN2S(=O)(=O)c2cccc3cccnc23)c1	4.6	–
Cc1ccc(Cn2c(=O)n(Cc3ccc(C(=O)Nc4ccncc4)cc3)c(=O)c3ccccc32)cc1	9.9	–
Cc1cc(NC(=O)[C@@H]2CCCN2S(=O)(=O)c2cccc3cccnc23)n(C(C)(C)C)n1	–	4.92% (inactive)
Cc1ccc(NC(=O)[C@@H]2CCCN2S(=O)(=O)c2cccc3cccnc23)c(C)c1	2.1	–
